Tests used:
Assay in all cases: relative viability (nuclei count vs DMSO), 5 days (fraction); higher = more cells survive
Ibrutinib + Pemetrexed = compound: C=CC(=O)N1CCC[C@@H](n2nc(-c3ccc(Oc4ccccc4)cc3)c3c(N)ncnc32)C1 [Ibrutinib] + Nc1nc2[nH]cc(CCc3ccc(C(=O)N[C@@H](CCC(=O)O)C(=O)O)cc3)c2c(=O)[nH]1 [Pemetrexed] (partner 0.2 µM)
Summary of the method: (§1)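 Lung cancer cell lines in 1536-well plates were dosed by pin tool the day after seeding, either with one drug alone or with a fixed anchor-drug dose plus five library-drug doses (not always all listed) in √10 steps. After 5 days, cells were fixed and their nuclei stained in one step (final 0.05% Triton X-100, 1% formaldehyde, 1 ug/ml Hoechst), then counted on 4× images. Relative viability is the nuclei count in treated wells divided by that in vehicle wells. Values are medians of duplicate plates.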

BMX-IN-1 + Luminespib = compound: C=CC(=O)Nc1cc(-n2c(=O)ccc3cnc4ccc(-c5ccc(NS(C)(=O)=O)cc5)cc4c32)ccc1C [BMX-IN-1] + CCNC(=O)c1noc(-c2cc(C(C)C)c(O)cc2O)c1-c1ccc(CN2CCOCC2)cc1 [Luminespib] (partner 0.01 µM)
Summary of the method: as §1

BMX-IN-1 + OSI-027 = compound: C=CC(=O)Nc1cc(-n2c(=O)ccc3cnc4ccc(-c5ccc(NS(C)(=O)=O)cc5)cc4c32)ccc1C [BMX-IN-1] + COc1cccc2cc(-c3nc([C@H]4CC[C@H](C(=O)O)CC4)n4ncnc(N)c34)[nH]c12 [OSI-027] (partner 0.5 µM)
Summary of the method: as §1

BMX-IN-1 + AZD7762 = compound: C=CC(=O)Nc1cc(-n2c(=O)ccc3cnc4ccc(-c5ccc(NS(C)(=O)=O)cc5)cc4c32)ccc1C [BMX-IN-1] + NC(=O)Nc1cc(-c2cccc(F)c2)sc1C(=O)N[C@H]1CCCNC1 [AZD7762] (partner 0.2 µM)
Summary of the method: as §1

## SW 900
Ibrutinib + Pemetrexed; first compound 0.005 µM
  relative viability: 0.456
Ibrutinib + Pemetrexed; first compound 0.01581 µM
  relative viability: 0.48
Ibrutinib + Pemetrexed; first compound 0.05 µM
  relative viability: 0.478
Ibrutinib + Pemetrexed; first compound 0.1581 µM
  relative viability: 0.482
Ibrutinib + Pemetrexed; first compound 0.5 µM
  relative viability: 0.49
BMX-IN-1 + Luminespib; first compound 0.02 µM
  relative viability: 0.172
BMX-IN-1 + Luminespib; first compound 0.2 µM
  relative viability: 0.182
BMX-IN-1 + Luminespib; first compound 0.6325 µM
  relative viability: 0.165
BMX-IN-1 + Luminespib; first compound 2 µM
  relative viability: 0.179
BMX-IN-1 + OSI-027; first compound 0.02 µM
  relative viability: 0.547
BMX-IN-1 + OSI-027; first compound 0.2 µM
  relative viability: 0.643
BMX-IN-1 + OSI-027; first compound 0.6325 µM
  relative viability: 0.523
BMX-IN-1 + OSI-027; first compound 2 µM
  relative viability: 0.764
BMX-IN-1 + AZD7762; first compound 0.02 µM
  relative viability: 0.656
BMX-IN-1 + AZD7762; first compound 0.2 µM
  relative viability: 0.636
BMX-IN-1 + AZD7762; first compound 0.6325 µM
  relative viability: 0.735
BMX-IN-1 + AZD7762; first compound 2 µM
  relative viability: 0.666
